Source: PMC6199744, “Development of Chemical Proteomics for the Folateome and Analysis of the Kinetoplastid Folateome” (ACS Infectious Diseases, 2018)
Read-outs that look alike come from different tables or passages of the source.

Experiments:
Format in all cases: binding
[1] = target: T1, HeLa cell extract proteins (Homo sapiens, UniProt P25788)
T1 construct: endogenous in cells; host or cells: HeLa cell extract
T1 sequence (P25788 1-255): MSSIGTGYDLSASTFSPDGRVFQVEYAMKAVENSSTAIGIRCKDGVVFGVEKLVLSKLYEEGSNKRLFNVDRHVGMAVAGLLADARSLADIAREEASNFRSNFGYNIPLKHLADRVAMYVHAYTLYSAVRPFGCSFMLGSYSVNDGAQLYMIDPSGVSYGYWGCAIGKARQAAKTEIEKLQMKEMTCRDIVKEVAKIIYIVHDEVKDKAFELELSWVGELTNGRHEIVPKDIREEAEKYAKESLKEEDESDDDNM

[2] = target: T2, HeLa cell extract proteins (Homo sapiens, UniProt P42345)
T2 construct: endogenous in cells; host or cells: HeLa cell extract

[3] = target: T3, HeLa cell extract proteins (Homo sapiens, UniProt P13639)
T3 construct: endogenous in cells; host or cells: HeLa cell extract

[4] = target: T4, HeLa cell extract proteins (Homo sapiens, UniProt P32320)
T4 construct: endogenous in cells; host or cells: HeLa cell extract

[5] = target: T5, HeLa cell extract proteins (Homo sapiens, UniProt P05166)
T5 construct: endogenous in cells; host or cells: HeLa cell extract
T5 sequence (P05166 29-539): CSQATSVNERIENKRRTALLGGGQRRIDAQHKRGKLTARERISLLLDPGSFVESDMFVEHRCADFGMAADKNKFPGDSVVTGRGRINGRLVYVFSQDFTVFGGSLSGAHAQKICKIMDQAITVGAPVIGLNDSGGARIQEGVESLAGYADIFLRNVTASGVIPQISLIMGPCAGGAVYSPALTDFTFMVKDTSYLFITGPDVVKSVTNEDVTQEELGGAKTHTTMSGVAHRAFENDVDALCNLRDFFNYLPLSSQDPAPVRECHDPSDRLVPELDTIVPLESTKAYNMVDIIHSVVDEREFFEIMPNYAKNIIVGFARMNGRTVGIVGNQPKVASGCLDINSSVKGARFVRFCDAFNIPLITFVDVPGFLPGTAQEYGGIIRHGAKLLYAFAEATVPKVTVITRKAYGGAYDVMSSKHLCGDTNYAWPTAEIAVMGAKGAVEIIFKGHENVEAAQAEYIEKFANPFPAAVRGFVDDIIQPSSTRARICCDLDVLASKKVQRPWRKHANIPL

[6] = target: T6, HeLa cell extract proteins (Homo sapiens, UniProt Q99714)
T6 construct: endogenous in cells; host or cells: HeLa cell extract
T6 sequence (Q99714 1-261): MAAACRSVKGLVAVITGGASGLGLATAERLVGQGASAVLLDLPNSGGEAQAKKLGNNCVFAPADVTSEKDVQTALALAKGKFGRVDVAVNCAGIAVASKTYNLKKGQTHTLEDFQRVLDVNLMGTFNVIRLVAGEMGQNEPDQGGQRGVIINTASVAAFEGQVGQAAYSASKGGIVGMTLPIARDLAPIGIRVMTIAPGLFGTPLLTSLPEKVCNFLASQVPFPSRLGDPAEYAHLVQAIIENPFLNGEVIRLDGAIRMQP

[7] = target: T7, HeLa cell extract proteins (Homo sapiens, UniProt P11310)
T7 construct: endogenous in cells; host or cells: HeLa cell extract
T7 sequence (P11310 26-421): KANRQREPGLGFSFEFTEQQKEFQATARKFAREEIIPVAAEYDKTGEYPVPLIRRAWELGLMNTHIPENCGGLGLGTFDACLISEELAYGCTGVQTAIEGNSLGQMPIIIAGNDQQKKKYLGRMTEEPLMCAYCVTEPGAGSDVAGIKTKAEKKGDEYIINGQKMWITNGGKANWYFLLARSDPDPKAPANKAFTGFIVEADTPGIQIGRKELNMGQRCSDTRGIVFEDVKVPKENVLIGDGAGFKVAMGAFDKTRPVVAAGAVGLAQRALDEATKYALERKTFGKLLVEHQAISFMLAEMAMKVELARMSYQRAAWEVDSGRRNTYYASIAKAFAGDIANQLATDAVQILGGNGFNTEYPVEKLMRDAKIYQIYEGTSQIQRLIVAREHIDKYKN

[8] = target: T8, HeLa cell extract proteins (Homo sapiens, UniProt Q9BW27)
T8 construct: endogenous in cells; host or cells: HeLa cell extract
T8 sequence (Q9BW27 1-656): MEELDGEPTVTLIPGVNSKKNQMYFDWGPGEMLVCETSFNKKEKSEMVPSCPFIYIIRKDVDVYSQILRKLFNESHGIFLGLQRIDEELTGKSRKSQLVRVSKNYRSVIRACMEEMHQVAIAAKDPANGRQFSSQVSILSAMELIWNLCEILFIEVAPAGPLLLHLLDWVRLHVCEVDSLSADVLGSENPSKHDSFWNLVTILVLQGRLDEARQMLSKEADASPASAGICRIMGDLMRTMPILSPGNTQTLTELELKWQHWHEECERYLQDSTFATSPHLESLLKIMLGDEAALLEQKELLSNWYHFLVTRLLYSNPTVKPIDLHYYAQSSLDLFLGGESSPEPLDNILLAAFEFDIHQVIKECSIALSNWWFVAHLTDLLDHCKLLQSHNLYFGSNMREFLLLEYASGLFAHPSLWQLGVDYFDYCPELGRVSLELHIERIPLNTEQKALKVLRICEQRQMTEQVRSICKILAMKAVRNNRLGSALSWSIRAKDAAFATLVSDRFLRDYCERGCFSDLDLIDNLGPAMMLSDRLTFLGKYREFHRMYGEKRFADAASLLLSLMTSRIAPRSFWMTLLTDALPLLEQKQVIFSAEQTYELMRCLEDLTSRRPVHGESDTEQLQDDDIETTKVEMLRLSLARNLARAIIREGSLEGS

[9] = target: T9, HeLa cell extract proteins (Homo sapiens, UniProt P27707)
T9 construct: endogenous in cells; host or cells: HeLa cell extract

[10] = target: T10, HeLa cell extract proteins (Homo sapiens, UniProt P63167)
T10 construct: endogenous in cells; host or cells: HeLa cell extract

[11] = target: T11, HeLa cell extract proteins (Homo sapiens, UniProt P30041)
T11 construct: endogenous in cells; host or cells: HeLa cell extract
T11 sequence (P30041 1-224): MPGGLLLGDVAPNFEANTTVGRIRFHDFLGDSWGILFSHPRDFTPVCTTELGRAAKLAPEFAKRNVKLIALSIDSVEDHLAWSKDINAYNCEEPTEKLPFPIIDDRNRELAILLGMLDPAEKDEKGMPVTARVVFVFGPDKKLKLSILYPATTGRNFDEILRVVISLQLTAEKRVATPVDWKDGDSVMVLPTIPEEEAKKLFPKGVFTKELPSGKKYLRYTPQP

[12] = HeLa, protein ACADM (HY[…] DKFZP686M24262)
[13] = HeLa, protein EEF2 (ELONGATION FACTOR 2.)
[14] = HeLa, protein PRDX6 (PEROXIREDOXIN-6.)

T9 sequence (P27707 whole entry): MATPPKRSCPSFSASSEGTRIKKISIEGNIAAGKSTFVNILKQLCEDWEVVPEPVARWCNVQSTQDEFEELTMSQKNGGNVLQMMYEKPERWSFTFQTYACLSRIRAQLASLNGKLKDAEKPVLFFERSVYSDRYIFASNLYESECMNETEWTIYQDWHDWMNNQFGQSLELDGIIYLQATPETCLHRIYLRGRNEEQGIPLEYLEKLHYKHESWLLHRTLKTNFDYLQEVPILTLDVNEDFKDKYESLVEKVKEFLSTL
T10 sequence (P63167 whole entry): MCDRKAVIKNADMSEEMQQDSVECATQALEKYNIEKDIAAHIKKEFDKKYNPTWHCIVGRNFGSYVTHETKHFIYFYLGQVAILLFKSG
T4 sequence (P32320 whole entry): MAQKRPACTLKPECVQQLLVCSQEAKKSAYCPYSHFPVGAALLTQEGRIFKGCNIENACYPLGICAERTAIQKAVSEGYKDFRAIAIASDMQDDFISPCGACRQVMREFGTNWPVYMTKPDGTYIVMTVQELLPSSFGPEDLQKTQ

Compound | fold changes relative to vehicle control ([1]; HeLa, captured protein PSMA3) | fold changes relative to vehicle control ([2]; HeLa, captured protein mTOR) | fold changes relative to vehicle control ([3]; HeLa, protein EEF2) | fold changes relative to vehicle control ([4]; HeLa, captured protein CDA) | fold changes relative to vehicle control ([5]; HeLa, protein PCCB) | fold changes relative to vehicle control ([6]; HeLa, protein HSD17B10) | fold changes relative to vehicle control ([8]; protein NUP85, HeLa) | fold changes relative to vehicle control ([10]; HeLa, captured protein DYNLL1) | fold changes relative to vehicle control ([11]; HeLa, protein PRDX6) | fold changes relative to vehicle control ([1]; protein PSMA3, HeLa) | fold changes relative to vehicle control ([2]; captured protein mTOR, HeLa) | fold changes relative to vehicle control ([4]; captured protein CDA, HeLa) | fold changes relative to vehicle control ([5]; captured protein PCCB, HeLa) | fold changes relative to vehicle control ([6]; protein HSD17B10, HeLa) | fold changes relative to vehicle control ([7]; protein ACADM, HeLa) | fold changes relative to vehicle control ([8]; captured protein NUP85, HeLa) | fold changes relative to vehicle control ([9]; protein DCK, HeLa) | fold changes relative to vehicle control ([10]; protein DYNLL1, HeLa) | fold changes relative to vehicle control [11, 14] | other results
Nc1nc2c(c(=O)[nH]1)N(C=O)C(CNc1ccc(C(=O)N[C@@H](CCC(=O)O)C(=O)O)cc1)CN2 (some centres unmarked) [LEU, leucovorin] | 1.02 | 1.05 | 1.06 | 1.07 | 0.97 | 0.93 | 0.82 | 1.05 | 1.05 |  |  |  |  |  |  |  |  |  |  | fold changes relative to vehicle control [7, 12]: 1.16; fold changes relative to vehicle control ([9]; HeLa, protein DCK (DEO[…])): 1.12
Nc1nc2[nH]cc(CCc3ccc(C(=O)N[C@@H](CCC(=O)O)C(=O)O)cc3)c2c(=O)[nH]1 [PTX, pemetrexed] |  |  |  |  |  |  |  |  |  |  |  |  |  |  |  |  |  |  |  | fold changes relative to vehicle control [1]: 0.99; fold changes relative to vehicle control [2]: 0.99; fold changes relative to vehicle control [3]: 1.2; fold changes relative to vehicle control [4]: 1.06; fold changes relative to vehicle control [5]: 0.22; fold changes relative to vehicle control [6]: 0.9; fold changes relative to vehicle control [7]: 1.3; fold changes relative to vehicle control [8]: 0.9; fold changes relative to vehicle control [9]: 1; fold changes relative to vehicle control [10]: 1.06; fold changes relative to vehicle control [11]: 1.21
CCCCCCOc1ccc(Cc2cnc(N)nc2N)cc1 [compound 1] |  |  |  |  |  |  |  |  |  | 1.04 | 0.89 | 0.91 | 0.99 | 0.91 | 1.17 | 0.93 | 0.98 | 1.08 | 1.45 fold | fold changes relative to vehicle control [3, 13]: 1.33 fold
CCCCCCOc1cccc(Cc2cnc(N)nc2N)c1 [compound 2] |  |  |  |  |  |  |  |  |  | 1.27 | 1.1 | 0.88 | 0.92 | 1.31 | 1.75 | 0.96 | 0.9 | 1.05 | 2.27 fold | fold changes relative to vehicle control [3, 13]: 2.22 fold
Nc1nc2cccc(-c3ccccc3)c2n1Cc1ccc(Cl)c(Cl)c1 [compound 3] |  |  |  |  |  |  |  |  |  | 0.86 | 1.01 | 0.94 | 1 | 0.93 | 1 | 0.9 | 1.01 | 0.96 | 0.92 fold | fold changes relative to vehicle control ([3]; HeLa, protein EEF2 ([…] 2.)): 0.97 fold
NCCOCCOCC(=O)Nc1nc2ncc(CNc3ccc(C(=O)NC(CCC(=O)O)C(=O)O)cc3)nc2c(=O)[nH]1 (centres unmarked) [compound 6] | 1.01 | 1.15 | 1.35 | 0.89 | 0.91 | 0.94 | 0.93 | 1.14 | 1.33 |  |  |  |  |  |  |  |  |  |  | fold changes relative to vehicle control ([7]; HeLa, protein ACADM (HYPOTHETICAL PROTEIN DKFZP686M24262)): 1.43; fold changes relative to vehicle control ([9]; HeLa, protein DCK (DEOXYCYTIDINE KINASE)): 0.93
NCCCNc1ccc(C(=O)NC(CCC(=O)O)C(=O)O)cc1 (centres unmarked) [compound 7] | 0.98 | 1.2 | 1.04 | 1.63 | 1.17 | 0.93 | 0.95 | 1.18 | 1.01 |  |  |  |  |  |  |  |  |  |  | fold changes relative to vehicle control [7, 12]: 1.06; fold changes relative to vehicle control ([9]; HeLa, protein DCK (DEO[…])): 1.04
